According to BindingDB's records for doi:10.1021/jm061242y (Elan Pharmaceuticals, 2007):

Target: Beta-secretase 1 (Homo sapiens, UniProt P56817)
Experiment: BACE Enzyme Inhibition Assay
Details: pH 4.8; 37 °C
Experimental: Beta-cleavage ELISA assays were carried out in reaction buffer containing enzyme, substrate MBP-C125, and test compounds. Generated beta-cleaved product was detected using biotinylated Sw192 or biotinyated Wt192 as specific reporter antibodies and quantitated against the appropriate MBP-C125 standard.

Chain of Beta-secretase 1 (P56817 whole entry): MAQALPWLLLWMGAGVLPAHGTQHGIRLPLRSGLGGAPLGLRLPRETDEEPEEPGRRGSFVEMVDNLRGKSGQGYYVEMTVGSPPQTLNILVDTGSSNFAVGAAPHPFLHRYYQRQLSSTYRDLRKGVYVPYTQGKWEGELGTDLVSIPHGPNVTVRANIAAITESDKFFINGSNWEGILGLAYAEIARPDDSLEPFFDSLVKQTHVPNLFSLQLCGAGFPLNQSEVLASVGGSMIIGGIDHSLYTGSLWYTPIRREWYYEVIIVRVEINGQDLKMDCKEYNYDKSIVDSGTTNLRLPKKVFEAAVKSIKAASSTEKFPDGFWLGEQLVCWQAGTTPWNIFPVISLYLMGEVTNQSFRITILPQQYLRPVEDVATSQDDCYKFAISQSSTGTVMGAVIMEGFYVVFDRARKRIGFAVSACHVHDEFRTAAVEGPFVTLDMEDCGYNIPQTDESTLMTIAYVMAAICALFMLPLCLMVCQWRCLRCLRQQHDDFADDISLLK

| IC50 [µM] | SMILES |
| --- | --- |
| 0.03 | CCCN(CCC)C(=O)c1cccc(C(=O)N[C@@H](Cc2cc(F)cc(F)c2)[C@@H](O)C[C@@H](C)C(=O)NCC(C)C)c1 |
| 68 | CCCN(CCC)C(=O)c1cccc(C(=O)N[C@@H](Cc2cc(F)cc(F)c2)[C@@H](O)CN[C@@H](C)C(=O)NCC(C)C)c1 [N-[(1S,2S)-1-(3,5-difluorobenzyl)-2-hydroxy-3-({(1S)-1-methyl-2-[(2-methylpropyl)amino]-2-oxoethyl}amino)propyl]-N,N-dipropylbenzene-1,3-dicarboxamide] |
